Consider 14 molecules from US20260209234A1, “SUBSTITUTED DIHYDROPYRROLO[3,4-D]PYRIMIDINE COMPOUNDS AND THEIR USE IN TREATING MEDICAL CONDITIONS” (Karuna Therapeutics, Inc., priority 2022, published 2026).

Structures are written as SMILES.

For one assay, the target named is T1, hM4 receptors (Homo sapiens, UniProt P08173).
T1 construct: expressed in transfected cells; host or cells: CHO cells
T1 sequence (P08173 1-479): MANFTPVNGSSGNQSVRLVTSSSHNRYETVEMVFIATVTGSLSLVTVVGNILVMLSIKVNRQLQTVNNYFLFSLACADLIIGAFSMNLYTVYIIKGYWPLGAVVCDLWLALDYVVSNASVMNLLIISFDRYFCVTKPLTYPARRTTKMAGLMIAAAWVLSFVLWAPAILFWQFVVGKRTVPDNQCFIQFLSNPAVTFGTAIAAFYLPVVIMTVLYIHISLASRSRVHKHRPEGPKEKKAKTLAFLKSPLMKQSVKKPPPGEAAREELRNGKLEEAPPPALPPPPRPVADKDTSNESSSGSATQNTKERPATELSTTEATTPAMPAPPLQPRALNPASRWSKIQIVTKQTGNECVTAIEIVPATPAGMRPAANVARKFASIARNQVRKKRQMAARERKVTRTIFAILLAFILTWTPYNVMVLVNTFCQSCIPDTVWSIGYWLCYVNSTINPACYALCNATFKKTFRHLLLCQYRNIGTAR
Description: Human M4 PAM pERK assay. In kind it is cell-based. Conditions: CHO cells expressing hM4; EC20 of acetylcholine (10 nM final); TR-FRET. A general note: In TR-FRET formats the signal depends on donor and acceptor labels being close together.

The target of a further assay is T2, rM4 receptors (Rattus norvegicus, UniProt P08485).
T2 construct: expressed in transfected cells; host or cells: CHO cells
T2 sequence (P08485 1-478): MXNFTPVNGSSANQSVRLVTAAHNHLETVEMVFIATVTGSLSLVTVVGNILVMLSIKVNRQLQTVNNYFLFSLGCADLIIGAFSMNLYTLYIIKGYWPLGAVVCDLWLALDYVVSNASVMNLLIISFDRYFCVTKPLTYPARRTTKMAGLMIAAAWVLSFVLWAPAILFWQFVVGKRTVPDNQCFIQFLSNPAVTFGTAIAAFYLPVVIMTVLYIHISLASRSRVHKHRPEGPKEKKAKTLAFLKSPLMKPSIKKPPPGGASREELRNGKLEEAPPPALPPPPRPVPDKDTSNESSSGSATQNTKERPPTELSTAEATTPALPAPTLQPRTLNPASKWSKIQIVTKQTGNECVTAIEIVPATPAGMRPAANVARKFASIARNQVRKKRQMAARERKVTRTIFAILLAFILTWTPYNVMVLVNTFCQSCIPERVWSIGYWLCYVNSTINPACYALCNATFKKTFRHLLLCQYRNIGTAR
Put plainly: Rat M4 PAM pERK assay. In kind it is cell-based. Conditions: CHO cells expressing rM4; EC20 of acetylcholine (10 nM final); TR-FRET.

The next assay addresses T3, human M4 receptor (Homo sapiens, UniProt P08173).
T3 construct: expressed in transfected cells
T3 sequence (P08173 1-479): T1 sequence (P08173 1-479)
Put plainly: M4 GTPγS PAM assay. In kind it is biochemical. The conditions noted are these: membranes of CHO-K1 cells stably expressing human M4; EC20 acetylcholine 40 nM; 35S-GTP. As to the method:
The M4 GTPγS PAM method was used. Membranes were prepared for GTPgS binding assays from CHO-K1 cells stably expressing human M4 receptor. Briefly, cells were grown in 5-layer cell culture flasks. Cells were washed with 50 mL of PBS and then dissociated with 0.05% trypsin. Dissociated cells were then collected by centrifugation at 650×g for 8 minutes at 4° C. Pellets were washed again in PBS by centrifugation and resuspended in 30 mL of 20 mM HEPES, 10 mM EDTA, pH 7.4. After sitting on ice for 30 min, membranes were collected by centrifugation at 50000×g for 15′ at 4° C., resuspended in 30 mL of 20 mM HEPES, 0.1 mM EDTA, pH 7.4 and collected again by centrifugation. Pellets were then washed twice by centrifugation in 30 mL of 20 mM HEPES, pH 7.4, and stored at −80° C. until the day of the assay. On the day of the assay, pellets were thawed on ice and resuspended in 1 mL of 20 mM HEPES, pH 7.4, 10 mM MgCl2, 100 mM NaCl using dounce homogenization. Membrane protein concentration is determined by BCA protein assay (Promega, Madison, WI) according to Promega guidelines.
On the day of the assay, serial dilutions of test PAM compounds were brought up in assay buffer (20 mM HEPES, 10 mM MgCl2, 100 mM NaCl) at 4× final assay concentration. […] of membrane homogenates (containing […] of membrane protein) were prepared in assay buffer supplemented with GDP at 4× final assay concentration (final assay concentration of GDP is 5 μM for M2 and 0.1 μM for M4) and dispensed into 96 well polypropylene, U-bottom Greiner plates. […] of vehicle or test PAM compound at 4× of final assay concentration diluted in the assay buffer were added to membrane and plates are incubated for 10-15 minutes at room temperature with gentle shaking. Then, […] of EC20 acetylcholine in assay buffer at 4× final assay concentration was added to assay plates (EC20 final assay concentrations was 40 nM for human M4).
Plates were then incubated, with shaking, for an additional 10-15 minutes. […] of 0.4 nM 35S-GTP (Perkin Elmer, Waltham, MA) in assay buffer was added to assay mixtures. The binding reaction is left on the shaker for 1 hour at room temperature. Membranes in assay reactions were then transferred to GF/C filter plates (Unifilter, Perkin Elmer) and washed three times using a FilterMate Harvester (Perkin Elmer) with cold assay buffer containing no GDP. Filter plates were then dried at 40° C. overnight followed by the addition of […] of Beta Plate Scintillation liquid. Plates are top and bottom sealed before being read on TopCount scintillation counter (Perkin Elmer, Waltham, MA).

For the molecule `COc1nc(C)nc2c1CN(C(=O)CC1CN(c3ncns3)C1)C2` [Compound I-45, 2-(1-(1,2,4-Thiadiazol-5-yl)azetidin-3-yl)-1-(4-methoxy-2-methyl-5,7-dihydro-6H-pyrrolo[3,4-d]pyrimidin-6-yl)ethan-1-one], the EC50 (commonly the concentration giving half of the maximal effect) is 100 to 500 nM on hM4 receptors, 500 to 2000 nM at rM4 receptors and no less than 2000 nM on human M4 receptor.
For `COc1nc(C)c2c(n1)CN(C(=O)CC1CN(c3ccnc(C(F)(F)F)c3)C1)C2` [Compound I-75, 1-(2-Methoxy-4-methyl-5,7-dihydro-6H-pyrrolo[3,4-d]pyrimidin-6-yl)-2-(1-(2-(trifluoromethyl)pyridin-4-yl)azetidin-3-yl)ethan-1-one], in that order: 100 to 500 nM, no less than 2000 nM and 100 to 500 nM.
For `COc1nc(C#N)nc2c1C(C)N(C(=O)CC1CN(c3ccnc(C(F)(F)F)c3)C1)C2` (single isomer, unassigned) [Compound I-5, 4-Methoxy-5-methyl-6-(2-(1-(2-(trifluoromethyl)pyridin-4-yl)azetidin-3-yl)acetyl)-6,7-dihydro-5H-pyrrolo[3,4-d]pyrimidine-2-carbonitrile], in that order: no less than 2000 nM, no less than 2000 nM and no less than 2000 nM.
For `CCOc1nc(C)nc2c1CN(C(=O)CC1CN(c3ccnc(C(F)(F)F)c3)C1)C2` [Compound I-46, 1-(4-Ethoxy-2-methyl-5,7-dihydro-6H-pyrrolo[3,4-d]pyrimidin-6-yl)-2-(1-(2-(trifluoromethyl)pyridin-4-yl)azetidin-3-yl)ethan-1-one], in that order: 500 to 2000 nM, no less than 2000 nM and 500 to 2000 nM.
With `COc1nc(C#N)nc2c1C(C)N(C(=O)CC1CN(c3ccncc3F)C1)C2` (single isomer, unassigned) [Compound I-29, 6-(2-(1-(3-Fluoropyridin-4-yl)azetidin-3-yl)acetyl)-4-methoxy-5-methyl-6,7-dihydro-5H-pyrrolo[3,4-d]pyrimidine-2-carbonitrile], the EC50 at hM4 receptors is 100 to 500 nM; on rM4 receptors, 500 to 2000 nM; at human M4 receptor, 100 to 500 nM.
`COc1nc(C#N)nc2c1C(C)N(C(=O)CC1CN(c3cnnc(C(F)(F)F)c3)C1)C2` (single isomer, unassigned) [Compound I-25, 4-Methoxy-5-methyl-6-(2-(1-(6-(trifluoromethyl)pyridazin-4-yl)azetidin-3-yl)acetyl)-6,7-dihydro-5H-pyrrolo[3,4-d]pyrimidine-2-carbonitrile]: the EC50 lay within 100 to 500 nM on hM4 receptors, 500 to 2000 nM at rM4 receptors and 100 to 500 nM on human M4 receptor.
Regarding `COc1nc(C#N)nc2c1CN(C(=O)CC1CN(c3ccnc(C(F)(F)F)c3)C1)C2C` (single isomer, unassigned) [Compound I-35, 4-Methoxy-7-methyl-6-(2-(1-(2-(trifluoromethyl)pyridin-4-yl)azetidin-3-yl)acetyl)-6,7-dihydro-5H-pyrrolo[3,4-d]pyrimidine-2-carbonitrile], the EC50 is 100 to 500 nM at hM4 receptors, 500 to 2000 nM on rM4 receptors and no less than 2000 nM at human M4 receptor.
For `COc1nc(C#N)nc2c1C(C)N(C(=O)CC1CN(c3ccnc(C(C)(C)O)c3)C1)C2` (single isomer, unassigned) [Compound I-30, 6-(2-(1-(2-(2-Hydroxypropan-2-yl)pyridin-4-yl)azetidin-3-yl)acetyl)-4-methoxy-5-methyl-6,7-dihydro-5H-pyrrolo[3,4-d]pyrimidine-2-carbonitrile], the values for the EC50 at hM4 receptors, at rM4 receptors and on human M4 receptor were no more than 100 nM, 100 to 500 nM and 100 to 500 nM, respectively.
For `COc1nc(C#N)nc2c1C(C)N(C(=O)CC1CN(c3cccnc3)C1)C2` (single isomer, unassigned) [Compound I-8, 4-Methoxy-5-methyl-6-(2-(1-(pyridin-3-yl)azetidin-3-yl)acetyl)-6,7-dihydro-5H-pyrrolo[3,4-d]pyrimidine-2-carbonitrile], the 50% effective concentration (EC50) on hM4 receptors is no more than 100 nM; on rM4 receptors, 100 to 500 nM; at human M4 receptor it was 500 to 2000 nM.
For `COc1cc(N2CC(CC(=O)N3Cc4nc(C#N)nc(OC)c4C3C)C2)cc(C(F)(F)F)n1` (stereo not drawn) [Compound I-31, 4-Methoxy-6-(2-(1-(2-methoxy-6-(trifluoromethyl)pyridin-4-yl)azetidin-3-yl)acetyl)-5-methyl-6,7-dihydro-5H-pyrrolo[3,4-d]pyrimidine-2-carbonitrile], in that order: 100 to 500 nM, no less than 2000 nM and no less than 2000 nM.
Turning to `COc1nc(C#N)nc2c1C(C)N(C(=O)CC1CN(c3ccnc(C(F)(F)F)c3)C1C)C2` (single isomer, unassigned) [Compound I-38, 4-Methoxy-5-methyl-6-(2-(2-methyl-1-(2-(trifluoromethyl)pyridin-4-yl)azetidin-3-yl)acetyl)-6,7-dihydro-5H-pyrrolo[3,4-d]pyrimidine-2-carbonitrile], the EC50 fell in the range of 100 to 500 nM on hM4 receptors, 500 to 2000 nM on rM4 receptors and 500 to 2000 nM on human M4 receptor.
With `COc1nc(C#N)nc2c1C(C)N(C(=O)CC1CN(c3ccnc(C(F)(F)F)c3)C1C)C2` (single isomer, unassigned) [Compound I-36, 4-Methoxy-5-methyl-6-(2-(2-methyl-1-(2-(trifluoromethyl)pyridin-4-yl)azetidin-3-yl)acetyl)-6,7-dihydro-5H-pyrrolo[3,4-d]pyrimidine-2-carbonitrile], the EC50 on hM4 receptors, at rM4 receptors and on human M4 receptor was no more than 100 nM throughout.
On to `COc1nc(C#N)nc2c1C(C)N(C(=O)CC1CN(c3ccnc(C(F)(F)F)c3)C1C)C2` (single isomer, unassigned) [Compound I-39, 4-Methoxy-5-methyl-6-(2-(2-methyl-1-(2-(trifluoromethyl)pyridin-4-yl)azetidin-3-yl)acetyl)-6,7-dihydro-5H-pyrrolo[3,4-d]pyrimidine-2-carbonitrile], for which the values for the EC50 at hM4 receptors, on rM4 receptors and on human M4 receptor were 500 to 2000 nM, 500 to 2000 nM and no less than 2000 nM, respectively.
Take `COc1nc(C#N)nc2c1C(C)N(C(=O)CC1CN(c3cccc(F)c3F)C1)C2` (single isomer, unassigned) [Compound I-19, 6-(2-(1-(2,3-Difluorophenyl)azetidin-3-yl)acetyl)-4-methoxy-5-methyl-6,7-dihydro-5H-pyrrolo[3,4-d]pyrimidine-2-carbonitrile]: the EC50 at hM4 receptors, at rM4 receptors and at human M4 receptor was 100 to 500 nM throughout.
